Measurements taken from patent US20240383922A1, “KRAS Modulating Compounds” (Gilead Sciences, Inc., priority 2023, published 2024).
Like-named read-outs stand apart in the source and are kept apart here.

Tests used:
[1] = tested on: cellular pERK in MIA-PaCa-2 (KRAS-G12C) cell-line; assay: Cell based pERK assay (HTRF), MIA-PaCa-2; settings: MIA-PaCa-2 (KRAS-G12C) cells, 2 hours incubation, read-out: MIAPaCa2 pERK EC50
In short: (§1)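 Cells plated d−1; AsPC-1 5000/well, others 7500/well. Media: RPMI + 10% FBS (AsPC-1, NCI-H441, Kuramochi), DMEM (MIA-PaCa-2). Cmpd 3-fold dilutions, 2 h 37 °C, 5% CO2. pERK1/2 HTRF, RT o/n, 665/615 ratio. IC50 by sigmoidal fit.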

[2] = molecular target: GDP-loaded KRAS-G12V (Homo sapiens (Human), UniProt P01116, G12V); assay: KRAS (GDP) biochemical TR-FRET probe displacement assay, KRAS-G12V; format: binding; settings: 2 hours
GDP-loaded KRAS-G12V, sequence (P01116-2 other isoform, or with tags, fused parts or gaps G12V): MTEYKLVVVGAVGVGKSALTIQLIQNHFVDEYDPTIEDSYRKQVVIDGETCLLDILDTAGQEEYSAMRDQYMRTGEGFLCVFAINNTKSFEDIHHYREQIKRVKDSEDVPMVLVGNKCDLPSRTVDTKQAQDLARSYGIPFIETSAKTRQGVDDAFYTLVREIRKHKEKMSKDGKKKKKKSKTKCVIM
Protocol: (§2) KRAS (GDP) Biochemical Assays:
(§3) Compounds were serially diluted (1:3) in DMSO. The LabCyte ECHO Acoustic dispenser was used to pre-spot the assay plates (384-well Non-Binding Surface plates, Corning, Catalog #3824) with 50 nL of compound. 5 μL of 2× enzyme concentration was added to the pre-spotted plates and incubated for 30 minutes before adding 5 μL of 2× concentration of Eu-streptavidin and Cy-5 labelled probe (10 μL final reaction volume). The plates were incubated at room temperature for 2 hours before measuring TR-FRET ratio (665 nm/615 nm) on the Envision multimode plate reader. The ratios were normalized to a positive (saturating concentration of known inhibitor) and negative (DMSO) control and plotted against the log of compound concentration.

[3] = molecular target: GDP-loaded wild-type KRAS (WT) (Homo sapiens (Human), UniProt P01116); assay: KRAS (GDP) biochemical TR-FRET probe displacement assay, WT KRAS; format: binding; settings: 2 hours
GDP-loaded wild-type KRAS (WT), sequence (P01116-2 other isoform, or with tags, fused parts or gaps): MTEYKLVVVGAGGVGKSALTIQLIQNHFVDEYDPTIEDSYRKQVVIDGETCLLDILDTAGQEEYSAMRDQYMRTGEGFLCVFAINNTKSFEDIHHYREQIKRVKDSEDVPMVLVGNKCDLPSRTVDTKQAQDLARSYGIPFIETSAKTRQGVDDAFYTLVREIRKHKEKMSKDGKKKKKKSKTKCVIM
Protocol: as §2, §3

[4] = tested on: cellular pERK in Kuramochi (WT KRAS) cell-line; assay: Cell based pERK assay (HTRF), Kuramochi; settings: Kuramochi (WT KRAS) cells, 2 hours incubation
In short: as §1

[5] = molecular target: GDP-loaded KRAS-G12D (Homo sapiens (Human), UniProt P01116, G12D); assay: KRAS (GDP) biochemical TR-FRET probe displacement assay, KRAS-G12D; format: binding; settings: 2 hours
GDP-loaded KRAS-G12D, sequence (P01116-2 other isoform, or with tags, fused parts or gaps G12D): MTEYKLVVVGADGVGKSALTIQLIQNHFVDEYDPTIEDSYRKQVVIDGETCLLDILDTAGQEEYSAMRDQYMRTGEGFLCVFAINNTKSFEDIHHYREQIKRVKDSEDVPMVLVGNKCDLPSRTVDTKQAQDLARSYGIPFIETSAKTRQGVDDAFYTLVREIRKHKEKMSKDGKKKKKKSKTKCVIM
Protocol: as §2, §3

[6] = tested on: cellular pERK in NCI-H441 (KRAS-G12V) cell-line; assay: Cell based pERK assay (HTRF), NCI-H441; settings: NCI-H441 (KRAS-G12V) cells, 2 hours incubation
In short: as §1

[7] = molecular target: GDP-loaded KRAS-G12C (Homo sapiens (Human), UniProt P01116, G12C); assay: KRAS (GDP) biochemical TR-FRET probe displacement assay, KRAS-G12C; format: binding; settings: 2 hours
GDP-loaded KRAS-G12C, sequence (P01116-2 other isoform, or with tags, fused parts or gaps G12C): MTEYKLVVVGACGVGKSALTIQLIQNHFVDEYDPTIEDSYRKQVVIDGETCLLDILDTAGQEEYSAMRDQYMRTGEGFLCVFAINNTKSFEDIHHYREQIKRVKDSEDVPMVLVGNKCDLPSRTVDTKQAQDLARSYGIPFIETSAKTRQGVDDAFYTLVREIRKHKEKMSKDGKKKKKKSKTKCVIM
Protocol: as §2, §3

[8] = tested on: cellular pERK in ASPC-1 (KRAS G12D) cell-line; assay: Cell based pERK assay (HTRF), ASPC-1; settings: ASPC-1 (KRAS G12D) cells, 2 hours incubation
In short: as §1

SMILES	EC50 ([1]; Homo sapiens)	IC50 [2]	IC50 [3]	EC50 [4]	IC50 [5]	EC50 ([6]; Homo sapiens)	IC50 [7]	EC50 ([8]; Homo sapiens, ASPC1)	EC50 [1]	EC50 [6]	EC50 ([8]; read-out: AsPC1 pERK EC50)
C#Cc1c(F)ccc2cc(N)cc(-c3nc4c5c(nc(OC[C@@]67CCCN6[C@H](COc6cc(C(F)(F)F)ncn6)CC7)nc5c3F)N3CCCOC[C@@H]3CC4)c12 [Example 7-4]	9.04 nM	2.01 nM	2.26 nM	4.47 nM	4.5 nM	8.95 nM	1.02 nM	26.3 nM	–	–	–
C#Cc1c(F)ccc2cc(N)cc(-c3nc4c5c(nc(OC[C@@]67CCCN6[C@H](COc6nccnc6C(F)F)CC7)nc5c3F)N3CCCOC[C@@H]3CC4)c12 [Example 7-6]	3.88 nM	1.2 nM	1.93 nM	4.17 nM	3.15 nM	11.8 nM	1.09 nM	32.1 nM	–	–	–
C#Cc1c(F)ccc2cc(N)cc(-c3c(F)c4c5c(nc(OC[C@@]67CCCN6C[C@H](F)C7)nc5c3F)N3CCCOC[C@@H]3CC4)c12 [Example 7-12]	8.18 nM	15.8 nM	30 nM	7.88 nM	24.6 nM	32.6 nM	4.58 nM	104 nM	–	–	–
C#Cc1c(F)ccc2cc(O)cc(-c3nc4c5c(nc(OC[C@@]67CCCN6[C@H](COc6cc(C(F)(F)F)ncn6)CC7)nc5c3F)N3CCCOC[C@@H]3CC4)c12 [Example 6-12]	0.149 nM	0.22 nM	0.67 nM	1.34 nM	0.47 nM	0.73 nM	0.92 nM	1.53 nM	–	–	–
C#Cc1c(F)ccc2cccc(-c3nc4c5c(nc(OC[C@@]67CCCN6[C@H](COc6cc(C(F)(F)F)ncn6)CC7)nc5c3F)N3CCCOC[C@@H]3CC4)c12 [Example 6-15]	403 nM	29.2 nM	67.9 nM	231 nM	38.5 nM	> 749 nM	36.6 nM	> 859 nM	–	–	–
C#Cc1c(F)ccc2cc(O)cc(-c3nc4c5c(nc(OC[C@@]67CCCN6[C@H](COc6nccnc6C(F)C(C)F)CC7)nc5c3F)N3CCCOC[C@@H]3CC4)c12 (stereo partly drawn) [Example 6-14]	0.32 nM	0.09 nM	0.05 nM	3.46 nM	0.09 nM	2.07 nM	0.08 nM	3.5 nM	–	–	–
C#Cc1c(F)ccc2cc(N)cc(-c3nc4c5c(nc(OC[C@@]67CCCN6[C@H](COc6cc(C(F)(F)F)cnn6)CC7)nc5c3F)N3CCCOC[C@@H]3CC4)c12 [Example 7-5]	1.34 nM	0.65 nM	1.8 nM	1.4 nM	1.76 nM	3.48 nM	0.55 nM	21.2 nM	–	–	–
C#Cc1c(F)ccc2cc(O)cc(C3=C(F)C4N=C(OC[C@@]56CCCN5C[C@H](F)C6)N=C5C4C(=C3F)C(C)=C[C@H]3COCCCN53)c12 (stereo partly drawn) [Example 6-28]	2.34 nM	2.69 nM	3.43 nM	11.7 nM	2.82 nM	7.98 nM	2.53 nM	17.1 nM	–	–	–
C#Cc1c(F)ccc2cc(O)cc(-c3c(F)c4c5c(nc(OC[C@@]67CCCN6C[C@H](F)C7)nc5c3F)N3CCCOC[C@@H]3CC4)c12 (mixture of isomers) [Example 6-21]	1.08 nM	0.4 nM	0.88 nM	5.94 nM	0.87 nM	1.78 nM	0.54 nM	3.12 nM	–	–	–
C#Cc1c(F)ccc2cc(O)cc(-c3nc4c5c(nc(OC[C@@]67CCCN6C[C@H](F)C7)nc5c3F)N3CCCCC3CCn3nncc3-4)c12 (mixture of isomers) [Example 11-1, 5-ethynyl-6-fluoro-4-(1-fluoro-14-(((2R,7aS)-2-fluorotetrahydro-1H-pyrrolizin-7a(5H)-yl)methoxy)-8,8a,9,10,11,12-hexahydro-7H-3,5,6,6a,12a,13,15-heptaazabenzo[4,5]cyclopenta[8,9]cyclonona[1,2,3-de]naphthalen-2-yl)naphthalen-2-ol]	–	> 1000 nM	> 1000 nM	> 1000 nM	> 1000 nM	–	> 1000 nM	–	> 1000 nM	> 1000 nM	> 1000 nM
C#Cc1c(F)ccc2cc(N)cc(-c3nc4c5c(nc(OC[C@@]67CCCN6C[C@H](F)C7)nc5c3F)N3CCCOC[C@@H]3CC4)c12 [Example 7-1, 5-ethynyl-6-fluoro-4-((S)-1-fluoro-12-(((2R,7aS)-2-fluorotetrahydro-1H-pyrrolizin-7a(5H)-yl)methoxy)-4,5,5a,6,9,10-hexahydro-8H-7-oxa-3,10a,11,13-tetraazanaphtho[1,8-ab]heptalen-2-yl) naphthalen-2-amine]	4.12 nM	1.78 nM	3.87 nM	2.09 nM	2.73 nM	4.46 nM	0.9 nM	17.9 nM	–	–	–

Now from value to compound:

EC50 ([1]; Homo sapiens)	IC50 [2]	IC50 [3]	EC50 [4]	IC50 [5]	EC50 ([6]; Homo sapiens)	IC50 [7]	EC50 ([8]; Homo sapiens, ASPC1)	EC50 [1]	EC50 [6]	EC50 ([8]; read-out: AsPC1 pERK EC50)	SMILES
5.57 nM	1.37 nM	1.61 nM	2.15 nM	0.36 nM	6.08 nM	0.67 nM	14.6 nM	–	–	–	C#Cc1c(F)ccc2cc(O)cc(-c3nc4c5c(nc(OCC67CCCN6[C@H](COCC(F)(F)F)CC7)nc5c3F)N3CCCOCC3CC4)c12 (stereo partly drawn) [Example 22-8]
6.69 nM	12.6 nM	30.6 nM	9.83 nM	31 nM	37.1 nM	34.7 nM	54.6 nM	–	–	–	C#Cc1c(F)ccc2cc(O)cc(-c3nc4c5c(nc(OCC67CCCN6[C@H](COC(C(F)(F)F)C(F)(F)F)CC7)nc5c3F)N3CCCOCC3CC4)c12 (stereo partly drawn) [Example 22-7]
0.86 nM	1.59 nM	1.2 nM	3.16 nM	1.65 nM	1.97 nM	1.83 nM	2.31 nM	–	–	–	C#Cc1c(F)ccc2cc(O)cc(-c3nc4c5c(nc(OC[C@@]67CCCN6[C@H](COC(C(F)(F)F)(C(F)(F)F)C(F)(F)F)CC7)nc5c3F)N3CCCOC[C@@H]3CC4)c12 [Example 22-4]
0.82 nM	0.42 nM	0.36 nM	3.63 nM	0.65 nM	1.05 nM	0.49 nM	1.39 nM	–	–	–	C#Cc1c(F)ccc2cc(O)cc(-c3nc4c5c(nc(OC[C@@]67CCCN6[C@H](COc6cc(C(F)(F)F)cnn6)CC7)nc5c3F)N3CCCOC[C@@H]3C=C4C)c12 [Example 18-2]
217 nM	47.7 nM	69.1 nM	181 nM	56.4 nM	572 nM	37.1 nM	655 nM	–	–	–	C#Cc1c(F)ccc2cc(O)cc(-c3nc4c5c(nc(OCC6(CN7CCCCC7)CC6)nc5c3F)N3CCCOC[C@@H]3CC4)c12 [Example 15-1, (S)-5-ethynyl-6-fluoro-4-(1-fluoro-12-((1-(piperidin-1-ylmethyl)cyclopropyl)methoxy)-4,5,5a,6,9,10-hexahydro-8H-7-oxa-3,10a,11,13-tetraazanaphtho[1,8-ab]heptalen-2-yl)naphthalen-2-ol]
–	4960 nM	5290 nM	> 956 nM	17500 nM	–	1440 nM	–	4640 nM	7240 nM	27100 nM	Cc1cc(N)nc(-c2c(Cl)c3c4c(nc(OC[C@@]56CCCN5C[C@H](F)C6)nc4c2F)N2CCCOCC2CC3)c1C(F)(F)F (mixture of isomers) [Example 21-1, 6-(12-chloro-10-fluoro-8-(((2R,7aS)-2-fluorotetrahydro-1H-pyrrolizin-7a(5H)-yl)methoxy)-1,4,5,13,14,14a-hexahydro-3H-[1,4]oxazepino[4′,3′:1,7]azepino[2,3,4-de]quinazolin-11-yl)-4-methyl-5-(trifluoromethyl)pyridin-2-amine]
0.28 nM	0.2 nM	0.17 nM	1.99 nM	0.24 nM	0.56 nM	0.19 nM	0.62 nM	–	–	–	C#Cc1c(F)ccc2cccc(-c3nc4c5c(nc(OC[C@@]67CCCN6[C@H](COC(=O)N6CCCCC6)CC7)nc5c3F)N3CCCOC[C@@H]3CC4)c12 [Example 16-2]
